Tests used:
[1] = test system: SgJFH1-Luc RNA (subgenomic JFH1 replicon); assay: SgJFH1-Luc RNA replication in Huh7 cells, luciferase assay; type: cell-based, hepatitis C virus; settings: Huh7 cells transfected with SgJFH1-Luc RNA
Description: (§1) For viral RNA transfection, JFH1, JFH1/GND, and pSGR-JFH1-Luc were linearized with XbaI and used to synthesize the corresponding positive-sense stranded HCV RNA, as previously described (68). Then, 5×10^6 Huh7 cells were rinsed with Opti-Mem (Invitrogen), mixed briefly with 10-20 μg of the in vitro transcribed RNA in 0.4 ml of Opti-Mem, and then electroporated at 260 volts and 950 μF. […] Medium was changed daily. For infection with HCV, medium collected from JFH1 RNA-transfected cells were cleared of cell debris, as described, and added to naïve Huh7 cells. Typically, 1:2 or 3:2 ratio of the virus-containing medium and fresh cell culture medium were used.
SgJFH1-Luc RNA replication was also monitored by firefly luciferase reporter assay, using a kit from Promega.
To investigate whether the HCV RNA replication is modulated by ROS, Huh7 cells were transfected with the SgJFH1-Luc RNA and treated with GO plus glucose.
After 24 and 48 hours, respectively, the cells were collected in PBS, centrifuged, lysed in the reporter lysis buffer (Promega), and analyzed for luciferase activity.

GSH [2] = assay: Intracellular GSH content in Huh7 cells (unpublished observation); type: cell-based, human; settings: twenty to 100 μM BSO
[3] = test system: subgenomic HCV replicon of genotype 1b; assay: microbe, parasite or virus in culture; type: cell-based, hepatitis C virus; settings: SgPC2 cells, Northern blot
Description: Huh7 human hepatoma cells were cultured in Dulbecco's modified Eagle medium (DMEM; Invitrogen, Carlsbad, Calif., USA) supplemented with 10% fetal bovine serum (FBS; Invitrogen), 100 units/ml of penicillin, and 100 μg/ml of streptomycin in a 5% CO2 incubator. SgPC2 cells are G418-selected, pooled Huh7 cell clones that support the continuous replication of a subgenomic HCV replicon of genotype 1b and [29] (GenBank Accession No. AJ242652) that carries a S11791 adaptive mutation within the NS5A region. SgPC2 cells were maintained in the above medium supplemented with 0.5 mg/ml G418 (Invitrogen). G418 was removed at least 1 day before cell treatments.

JFH1-transfected cells = assay: ATP concentration as cytotoxicity measure in JFH1-transfected cells
Description: Determination of ATP concentrations—ATP level was measured, using Somatic Cell ATP Assay kit from Sigma-Aldrich, as previously described (68). Protein level was determined with bicinchoninic acid kit (Pierce Biotechnology, Inc., Rockford, Ill.).
ATP concentration was measured to determine if the treatments were cytotoxic to the cells.

GSH [4] = assay: Intracellular glutathione (GSH) in SgPC2 cells, GSH recycling assay; type: cell-based, human; settings: 20-40 μM BSO, 24 h
Description: Intracellular GSH concentration was determined using a GSH recycling assay [35] and expressed as nmol/mg protein. ATP level was measured using the Somatic Cell ATP assay kit from Sigma-Aldrich, as previously described [32]. Protein level was determined with a bicinchoninic acid kit (Pierce Biotechnology, Inc., Rockford, Ill., USA).

[5] = test system: intracellular calcium concentration ([Ca^2+]i); assay: [Ca^2+]i measurement with Indo-1 AM in SgPC2 cells; type: cell-based, human; settings: BSO-treated cells, after 24 h
Description: Briefly, on the day of the experiment, cells were washed in Krebs-Ringer phosphate buffer (KRPH; pH 7.4, containing 1.0 mM MgSO4, 1.3 mM CaCl2, 10 mM Hepes, 5 mM glucose, 125 mM NaCl, 5 mM KCl, and 10 mM sodium phosphate) and subsequently loaded with 10-20 μM Indo-1 AM (70 μl/coverslip; Molecular Probes, Inc., Eugene, Oreg., USA) containing 10 μM probenecid (Molecular Probes) for 30 min at 37° C. The attached cells were washed and bathed in KRPH/probenecid at 4° C. or room temperature until further analysis. Then, coverslips were individually submerged into KRPH and preequilibrated inside the […] fluorimeter (Hitachi) in darkness for 3 min, and [Ca^2+]i was monitored continuously at 37° C., with excitation at […] and emission at 400 and 450 nm. H2O2 and other agents were injected at different time points, as indicated under Results. [Ca^2+]i was calculated as described. Rmax was determined by adding 8-16 μM digitonin and Rmin with 10 mM ethylene glycol-bis(β-aminoethyl)-N,N,N'-tetraacetic acid (EGTA). […] The baseline, which represented unstimulated cells scanned over time, was plotted along with other measurements or subtracted from the other plots. Cells were serum-depleted, 1 day before the experiment, by incubating them overnight in DMEM plus 0.5% FBS. […] Then, CaCl2 was added before determining the Rmax for each run.

JFH1 HCV (genotype 2a) = type: cell-based, hepatitis C virus; settings: JFH1-transfected cells, 20 uM
Description: as §1
JFH1/GND was used as the negative control. When L-buthionine S,R-sulfoximine (BSO) was used, the cells were pretreated with BSO for 16-24 hrs prior to the initiation of treatments.
Intracellular JFH1 HCV RNA content was also analyzed by qRT-PCR (Taqman), using ABI7300 real time PCR system and one step RT-PCR kit from Applied Biosystems. The forward primer was 5′-[…]-3′ (nt. 146 to 164) and the reverse primer, 5′-[…]-3′ (nt. 277 to 295). The probe was 5′[…]3′ (nt. 168 to 188) and was fluorogenically labeled with FAM (5′) and TAMRA (3′) (Biosearch Technologies, Novato, Calif.). Briefly, the reactions were carried out at 48° C. for 30 min for reverse transcription, followed by denaturation at 95° C. for 10 min, and then 50 cycles of 15 sec denaturation at 95° C. plus 60 sec of annealing and extension at 60° C. All samples were analyzed in duplicates or triplicates. In vitro RNA transcripts were used to generate standard curve to determine RNA copy numbers. The level of 18S rRNA was also analyzed, using manufacturer-optimized protocol, as the control.
To analyze the amount of the extracellular HCV RNA, medium from the cells were cleared by low-speed centrifugation and then, treated with RNaseA at room temperature. Then, the RNA samples were extracted, using Trizol LS Reagent (Invitrogen), and analyzed for HCV RNA content by qRT-PCR.

CCCCS(=N)(=O)CCC(N)C(=O)O (stereo not shown) [BSO, 1-buthionine S,R-sulfoximine, reference compound]
HCV RNA level by luciferase activity [1]: further suppressed HCV RNA
decrease of intracellular GSH content (GSH [2]): about 60%
effect on HCV RNA level / replication [3]: sufficient to decrease the HCV RNA level
cytotoxicity (ATP concentration, cell survivability) (JFH1-transfected cells): did not cause any loss in cell survivability
decrease of total intracellular GSH concentration (GSH [4]): about 75%
intracellular calcium concentration [5]: 60.6 ± 4.3 nM
intracellular HCV RNA level (JFH1 HCV (genotype 2a)): significant suppression

From US20090123447A1, “COMPOSITIONS AND METHODS TO INHIBIT RNA VIRAL REPRODUCTION” (priority 2007, published 2009)
